We go through nine molecules from paper PMC9583845, “Characterization of the chicken melanocortin 5 receptor and its potential role in regulating hepatic glucolipid metabolism” (Frontiers in Physiology, 2022).

“Also recorded” adds a separate entry of the source.

Assay [1] deals with T1, chicken MC5R (Gallus gallus, UniProt O73671). More on the design: method as in 3 sources, ref Ling et al., 2004 ||| ref Dores et al., 2020 ||| ref Schioth et al., 1997; Ling et al., 2004. The settings on record: ref Schioth et al., 1997; Ling et al., 2004; cited from earlier work.
T1 sequence (O73671 1-325): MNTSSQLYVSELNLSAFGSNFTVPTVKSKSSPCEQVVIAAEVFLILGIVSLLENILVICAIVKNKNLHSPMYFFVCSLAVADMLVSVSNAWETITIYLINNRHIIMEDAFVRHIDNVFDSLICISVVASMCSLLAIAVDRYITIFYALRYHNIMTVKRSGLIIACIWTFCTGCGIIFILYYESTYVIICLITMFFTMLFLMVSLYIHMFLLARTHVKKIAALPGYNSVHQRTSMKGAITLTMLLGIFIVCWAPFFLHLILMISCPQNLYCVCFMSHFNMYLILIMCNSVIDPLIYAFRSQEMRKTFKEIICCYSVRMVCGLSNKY
The test system of another assay is human MC5R. The settings on record: ref Schioth et al., 1997; Ling et al., 2004; cited from earlier work. An excerpt:
The luciferase reporter system was then employed to investigate the signal pathway of MC5R coupling. […] Human peptides have previously been ...

Assay [2] has as its target T1, chicken MC5R. Put plainly: pGL3-CRE-luciferase reporter assay, CHO cells expressing chicken MC5R. Conditions: for ability to activate / sensitivity of cMC5R (in words, ranking): CHO cells expressing cMC5R; for EC50: Figure 2B, CHO cells transiently expressing cMC5R, 10^−12–10^−6 M, 6 h, mean ± SEM of three replicates (N = 3), representative of three independent experiments, read-out: EC50 (activation of cMC5R). The format is cell-based. An excerpt:
All chemicals were purchased from Sigma-Aldrich (St. Louis, MO, United States) and the restriction enzymes were obtained from TaKaRa (Dalian, China). […] All primers used in this study were synthesized by Beijing Genome Institute (BGI, China) and listed in Supplementary Table 1.
The expression plasmids encoding MC5R, MRAP1 and MRAP2 were established by cloning their entire open reading frame (ORF) into the pcDNA3.1 (+) expression vector (Invitrogen).
The cells were then transfected with a mixture containing 700 ng pGL3-CRE-Luciferase reporter construct, 200 ng of receptor expression plasmid (or empty pcDNA3.1 vector as a negative control), 20 ng of pRL-TK construct (containing a Renilla luciferase gene, used as an internal control), and 2 μl jetPRIME transfection reagent (Polyplus Transfection, Illkirch, France) in 200 μL buffer. […] After removal of the medium from the 96-well plate, the cells were treated with 100 μl ligand-containing medium (or ligand-free medium) for 6 h. Finally, CHO cells were lysed with 1 × passive lysis buffer for luciferase assay (Promega) and the luciferase activity of the cell lysate was measured by a Multimode Microplate Reader (TriStar LB941, EG&G Berthold, Germany) according to the manufacturer’s instruction.
All statistical analysis was performed using GraphPad Prism 9 (Graph Pad Software Inc., San Diego, CA). The dose-response curves were constructed using nonlinear regression models. Student’s test was used to compare two groups, for more than two groups one-way ANOVA was performed followed by Dunnett’s test. To validate our results, all in-vitro experiments were repeated three times, and representative data are reported.
On the technique in general: Reporter assays use an easily measured gene product as a stand-in for the process of interest.

Assay [3] deals with AC/cAMP/PKA signaling (cMC5R). Kind of assay: Inhibition of ACTH- or α-MSH-stimulated luciferase activity in CHO cells expressing cMC5R. The format is cell-based, chicken. The settings on record: for inhibition of ACTH-stimulated luciferase activity: inhibitor (H89 10 μM, MDL 5 μM) added 0.5 h before ACTH (10 nM, 6 h), Figure 2E; for inhibition of α-MSH-stimulated luciferase activity: inhibitor (H89 10 μM, MDL 5 μM) added 0.5 h before α-MSH (10 nM, 6 h), Figure 2F. On the procedure:
In brief, CHO cells were cultured on a six-well plate (Nunc, Roskilde, Denmark) and grown for 24 h before transfection. The cells were then transfected with a mixture containing 700 ng pGL3-CRE-Luciferase reporter construct, 200 ng of receptor expression plasmid (or empty pcDNA3.1 vector as a negative control), 20 ng of pRL-TK construct (containing a Renilla luciferase gene, used as an internal control), and 2 μl jetPRIME transfection reagent (Polyplus Transfection, Illkirch, France) in 200 μL buffer. Twenty-four hours later, CHO cells were sub-cultured into a 96-well plate at 37°C for an additional 24 h before treatment. After removal of the medium from the 96-well plate, the cells were treated with 100 μl ligand-containing medium (or ligand-free medium) for 6 h. Finally, CHO cells were lysed with 1 × passive lysis buffer for luciferase assay (Promega) and the luciferase activity of the cell lysate was measured by a Multimode Microplate Reader (TriStar LB941, EG&G Berthold, Germany) according to the manufacturer’s instruction.
To test whether cMRAP1 and cMRAP2 can alter the pharmacological properties of cMC5R, CHO cells co-expressing MC5R and cMRAP1/cMRAP2 were treated with chicken ACTH1–39/α-MSH, and the relative potential of these two peptides to activate the receptor was also determined using the pGL3-CRE-luciferase reporter system. At the same time, H89 (a PKA inhibitor, 10 μM) and MDL12330 A (an AC inhibitor, 5 μM) were used to further determine the signal pathways activated by ACTH1-39/α-MSH.

Assay [4] relates to ELOVL6 mRNA, primary chicken hepatocytes. Kind of assay: ELOVL6 mRNA in primary chicken hepatocytes, RT-qPCR. The format is cell-based. The settings on record: 6 h, N = 4, Figures 8A-C. On the procedure:
(§1) To evaluate the effect of ACTH1-39 on chicken liver, the chicken hepatocytes were prepared and maintained as a monolayer culture. Briefly, one-month-old male chicken hepatocytes were isolated by perfusion of a liver with Ca^2+-free KRB buffer to remove blood cells, and being digested with 0.25% collagenase-I for 10 min. Hepatocytes were obtained following filtering and washing using M199 medium. Then the hepatocytes were plated in a Corning CellBIND 48-well microplate (Corning, NY, cat. no.3338) with M199 medium containing 100 U/ml penicillin and […] streptomycin (Gibco), 5 μg/ml bovine insulin (Sigma), and 5% FBS at 37°C in a 5% CO2 atmosphere. To adhere to the wall, the cells were incubated on the 48-well plate for 4 h.
(§2) For quantitative real-time PCR, primary cultured chicken hepatocytes were treated with various concentrations of ACTH1-39 (or other composition) at 37°C for 6 h. The relative amount of mRNA was calculated using the comparative Ct method. Chicken β-actin gene was used as the reference gene. Amplification of specific transcripts was confirmed by analyzing the melting curve profile performed at the end of each run and by determining the size of the PCR products using agarose electrophoresis and ethidium bromide staining.
A general note: Real-time PCR tracks product formation cycle by cycle.

Assay [5] concerns THRSPA mRNA, primary chicken hepatocytes. Kind of assay: THRSPA mRNA in primary chicken hepatocytes, RT-qPCR. The format is cell-based. The settings on record: 6 h, N = 4, Figures 8D-F. On the procedure:
as §1, §2

Assay [6] deals with MC5R mRNA, primary chicken hepatocytes. Put plainly: MC5R mRNA in primary chicken hepatocytes, RT-qPCR. The format is cell-based. The settings on record: primary chicken hepatocytes, 6 h, N = 4, vs β-actin, Figures 6C-E. On the procedure: as §1, with “h. For quantitative real-time PCR, primary cultured chicken hepatocytes were treated with various concentrations of ACTH1-39 (or other composition) at 37°C for 6 h. The relative amount of mRNA was calculated using the comparative Ct method. Chicken β-actin gene was used as the reference gene. Amplification of specific transcripts was confirmed by analyzing the melting curve profile performed at the end of each run and by determining the size of the PCR products using agarose electrophoresis and ethidium bromide staining.” for “h.”

A further assay deals with chicken MC5R D204A. The settings on record: ref Min et al., 2019; cited from earlier work.
Another assay has as its system chicken MC5R D119A. Conditions: ref Min et al., 2019; cited from earlier work.
The next assay deals with hMC5R + MRAP2. Conditions: in vitro; ref Chan et al., 2009; cited from earlier work. An excerpt: Our results were consistent with previous results. […] In zebrafish, MRAP2a decreased the surface expression and efficacy of MC5Ra/MC5Rb, but not MRAP2b, in the same manner as mouse MRAP2 did ([Zhu et al., 2019]). In ricefield eel (Monopterus albus), two isoforms of MRAP2 (maMRAP2X1 and maMRAP2X2) significa ...

For the next assay, the system named is chicken MC5R F254A. Conditions: ref Min et al., 2019; cited from earlier work.

In the case of “hACTH1-39: human ACTH1-39 (SYSMEHFRWGKPVGKKRRPVKVYPNGAEDESAEAFPLEF; Corticotropin; UniProt P01189 138-176, looked up)”, in the assay with chicken MC5R [1], the “ability of hACTH1-39 vs hACTH1-24 to activate chicken MC5R” value is “no different”. For the same molecule, the “ability of hACTH1-39 vs hACTH1-24 to activate human MC5R” value in the assay with human MC5R is reported as “no different”.

Turning to Ac-YVMSHFRWNKF-NH2 [γ-MSH], on chicken MC5R [2], the “ability to activate / sensitivity of cMC5R (in words, ranking)” value is on record as “ACTH1-39 ≈ α-MSH > β-MSH > γ-MSH” and the concentration for a half-maximal effect (EC50) was found to be 144 ± 15.4 nM.

As to `O=S(=O)(NCCNC/C=C/c1ccc(Br)cc1)c1cccc2cnccc12` [H89], in assay [3], the “inhibition of ACTH-stimulated luciferase activity” value is listed as “significantly inhibit” and the “inhibition of α-MSH-stimulated luciferase activity” value is reported as “significantly inhibit”.

As to `Nc1ncnc2c1nc(Br)n2[C@@H]1O[C@@H]2COP(=O)(O)O[C@H]2[C@H]1O` [8-Br-cAMP], the “ELOVL6 mRNA expression” value in [4] is “not affected; also recorded: did not affect the expression”. In assay [5], the “THRSPA mRNA expression” value is reported as “not affected; also recorded: did not affect the expression”. The “MC5R mRNA abundance (in words)” value in assay [6] is “dose-dependent increase in MC5R mRNA abundance; also recorded: enhance the expression of MC5R in cultured hepatocytes in a dose-dependent manner”.

For `Cl.c1ccc(C2CCCC2NC2=NCCCCCCCCCCC2)cc1` (stereo not drawn) [MDL12330 A], in assay [3], the “inhibition of ACTH-stimulated luciferase activity” value is listed as “significantly inhibit” and the “inhibition of α-MSH-stimulated luciferase activity” value is recorded as “significantly inhibit”.

For SHU9119, the “response of D204A mutant” value in the assay on chicken MC5R D204A is “completely unresponsive”. The “response of D119A mutant” value in the assay with chicken MC5R D119A is given as “completely unresponsive”.

On to NDP-MSH, for which the “efficacy at hMC5R with MRAP2” value in the assay on hMC5R + MRAP2 is reported as “reduced the efficacy of hMC5R to NDP-MSH”. Also, in the assay with chicken MC5R D204A, the “response of D204A mutant” value is on record as “completely unresponsive”. Also, in the assay with chicken MC5R D119A, the “response of D119A mutant” value is reported as “completely unresponsive”. Besides, the “reactivity of F254A mutant” value with chicken MC5R F254A is given as “significantly reduced the reactivity”.

Take `C=C[C@@]1(C)CC(=O)[C@]2(O)[C@@]3(C)[C@@H](O)CCC(C)(C)[C@@H]3[C@H](O)[C@H](OC(C)=O)[C@@]2(C)O1` [forskolin]: the figures for the “ELOVL6 mRNA expression” value in [4] and in assay [4] (listed as Forskolin) were “did not affect the expression” and “not affected”, respectively. The “THRSPA mRNA expression” value in assay [5] is “did not affect the expression”; in assay [5] (listed as Forskolin), “not affected”. In assay [6], the “MC5R mRNA abundance (in words)” value was “significantly increased MC5R mRNA abundance; also recorded: enhance the expression of MC5R in cultured hepatocytes in a dose-dependent manner”.

With H-DGGSYRMRHFRWHAPLKD-OH [β-MSH], at chicken MC5R [2], the “ability to activate / sensitivity of cMC5R (in words, ranking)” value is given as “ACTH1-39 ≈ α-MSH > β-MSH > γ-MSH” and the EC50 came to 38.7 ± 6.51 nM.

In general, EC50 refers to the concentration needed to bring the measured effect to its halfway point.
